Data as given in patent publication US12606556B2, “TYK-2 inhibitor” (BEIGENE, LTD., priority 2020, dated 2026).
Read-outs that look alike come from different tables or passages of the source.

Key:
[1] = target: T1, TYK2-JH2 (aa 575-869, in-house) protein (Homo sapiens, UniProt P29597); assay: TYK2-JH2 biochemical assay (HTRF, blocking of TYK2-JH2 protein with its probe); type: binding; conditions: for IC50: HTRF, 0.2 nM recombinant TYK2-JH2, Probe 1; for Biochemical assay Selectivity fold (TYK2/JAK1): TYK2-JH2 vs JAK1-JH2 biochemical IC50
T1 construct: TYK2-JH2 (aa 575-869, in-house) protein; made in house
T1 sequence (P29597 575-869): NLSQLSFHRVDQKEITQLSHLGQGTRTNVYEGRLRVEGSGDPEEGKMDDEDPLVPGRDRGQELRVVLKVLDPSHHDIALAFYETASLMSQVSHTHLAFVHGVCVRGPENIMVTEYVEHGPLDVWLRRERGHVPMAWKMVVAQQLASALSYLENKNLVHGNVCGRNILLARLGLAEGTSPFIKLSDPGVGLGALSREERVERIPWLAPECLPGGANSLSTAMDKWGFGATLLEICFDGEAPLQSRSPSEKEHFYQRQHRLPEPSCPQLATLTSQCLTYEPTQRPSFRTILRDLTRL
Method in brief: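 Recombinant TYK2-JH2 (0.2 nM) pre-incubated with compounds (10 doses, 5-fold dilutions) 0.5 h at RT in HEPES pH 7.5 buffer with MgCl2, BSA, DTT, Brij-35; biotinylated probe (10 nM working solution, KD=10 nM) plus anti-6His Tb cryptate/streptavidin-XL665 added, 1 h RT. HTRF ratio read; IC50 from four-parameter logistic fit.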

[2] = target: T2, JAK1-JH2 protein (aa 561-860, in-house) (Homo sapiens, UniProt P23458); assay: JAK1-JH2 biochemical assay (HTRF, blocking of JAK1-JH2 protein with its probe); type: binding; conditions: 1.17 nM recombinant JAK1-JH2, Probe 2
T2 construct: JAK1-JH2 protein (aa 561-860, in-house); made in house
T2 sequence (P23458 561-860): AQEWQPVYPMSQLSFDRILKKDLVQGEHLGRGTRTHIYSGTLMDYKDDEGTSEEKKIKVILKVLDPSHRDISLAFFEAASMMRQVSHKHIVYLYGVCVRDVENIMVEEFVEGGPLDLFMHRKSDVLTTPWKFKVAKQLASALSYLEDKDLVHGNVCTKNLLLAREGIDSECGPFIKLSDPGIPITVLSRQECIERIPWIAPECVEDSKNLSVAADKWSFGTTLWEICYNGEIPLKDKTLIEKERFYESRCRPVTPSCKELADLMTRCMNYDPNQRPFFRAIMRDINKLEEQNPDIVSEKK
Method in brief: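 HTRF probe-displacement assay using recombinant human JAK1 pseudokinase domain (aa 561-860, 1.17 nM in pre-incubation step), pre-incubated 0.5 h at room temperature with 10-dose 5-fold compound series. Buffer: 20 mM HEPES pH 7.5, 10 mM MgCl2, 0.005% BSA, 2 mM DTT, 0.015% Brij-35. IC50 by four-parameter logistic fit of 615/665 nm ratio.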

[3] = tested on: JAK2, TYK2/p-STAT4 (Tyr693) activated by IL-12 in NK-92 cell line; assay: IL-12-JAK2, TYK2/p-STAT4 (Tyr693) inhibition cellular assay; type: cell-based; conditions: for IC50: NK92, 0.5 h, read-out: Cellular assay pSTAT4/IL-12 IC50; for Cellular assay Selectivity fold (TYK2/JAK1): pSTAT4/IL-12 vs pSTAT3/IL-6 cellular IC50
Method in brief: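 NK-92 cells were starved overnight without IL-2 and seeded at 5×10^4 per well in 1640 medium with 0.1% BSA. Lysate p-STAT4 (Tyr693) was measured by AlphaLISA SureFire, and IC50 was fitted with a 4-parameter logistic model.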

[4] = tested on: JAK1/p-STAT3(Tyr705) activated by IL-6 in TF-1 cell line; assay: IL-6-JAK1/p-STAT3(Tyr705) inhibition cellular assay; type: cell-based; conditions: Homo sapiens, read-out: Cellular assay pSTAT3/IL-6 IC50
[5] = NK-92 cells, IL-12 40 ng/ml, 30 min
[6] = 0.5 h, TF-1 cells, IL-6 50 ng/ml, 30 min

CNC(=O)c1nnc(NC(=O)C2CC2)cc1Nc1nc2ccc(C3CN(C(=O)c4cccnc4)C3)cn2n1 [Example L3, 6-(cyclopropanecarboxamido)-N-methyl-4-((6-(1-nicotinoylazetidin-3-yl)-[1,2,4]triazolo[1,5-a]pyridin-2-yl)amino)pyridazine-3-carboxamide]
IC50 [1]: 0.072 nM | Biochemical assay Selectivity fold (TYK2/JAK1) [1]: 21 fold | IC50 [2]: 1.5 nM | IC50 [3, 5]: 127 nM | Cellular assay Selectivity fold (TYK2/JAK1) [3]: >79 fold | IC50 [4, 6]: > 10000 nM

CNC(=O)c1nnc(NC(=O)C2CC2)cc1Nc1nc2ccc(C3CN(C(=O)c4ncn(C)n4)C3)cn2n1 [Example L5, 6-(cyclopropanecarboxamido)-N-methyl-4-((6-(1-(1-methyl-1H-1,2,4-triazole-3-carbonyl)azetidin-3-yl)-[1,2,4]triazolo[1,5-a]pyridin-2-yl)amino)pyridazine-3-carboxamide]
IC50 [1]: 0.076 nM | Biochemical assay Selectivity fold (TYK2/JAK1) [1]: 22 fold | IC50 [2]: 1.7 nM | IC50 [3, 5]: 2000 nM | Cellular assay Selectivity fold (TYK2/JAK1) [3]: >5 fold | IC50 [4, 6]: > 10000 nM

CNC(=O)c1nnc(NC(=O)C2CC2)cc1Nc1nc2ccc(C3CN(C(=O)N4CCOCC4)C3)cn2n1 [Example L6, 6-(cyclopropanecarboxamido)-N-methyl-4-((6-(1-(morpholine-4-carbonyl)azetidin-3-yl)-[1,2,4]triazolo[1,5-a]pyridin-2-yl)amino)pyridazine-3-carboxamide]
IC50 [1]: 0.04 nM | Biochemical assay Selectivity fold (TYK2/JAK1) [1]: 38 fold | IC50 [2]: 1.5 nM | IC50 [3, 5]: 86 nM | Cellular assay Selectivity fold (TYK2/JAK1) [3]: >117 fold | IC50 [4, 6]: > 10000 nM

CNC(=O)c1nnc(NC(=O)C2CC2)cc1Nc1nc2ccc(C3CN(C)C3)cn2n1 [Example M1, 6-(cyclopropanecarboxamido)-N-methyl-4-((6-(1-methylazetidin-3-yl)-[1,2,4]triazolo[1,5-a]pyridin-2-yl)amino)pyridazine-3-carboxamide]
IC50 [1]: 0.26 nM | Biochemical assay Selectivity fold (TYK2/JAK1) [1]: 10 fold | IC50 [2]: 2.6 nM | IC50 [3, 5]: 63 nM | Cellular assay Selectivity fold (TYK2/JAK1) [3]: >158 fold | IC50 [4, 6]: > 10000 nM

CNC(=O)c1nnc(NC(=O)C2CC2)cc1Nc1nc2c(OC)cc(N3CCC3)cn2n1 [Example N1, 4-((6-(azetidin-1-yl)-8-methoxy-[1,2,4]triazolo[1,5-a]pyridin-2-yl)amino)-6-(cyclopropanecarboxamido)-N-methylpyridazine-3-carboxamide]
IC50 [1]: 0.87 nM | Biochemical assay Selectivity fold (TYK2/JAK1) [1]: 2 fold | IC50 [2]: 1.4 nM | IC50 [3, 5]: 687 nM | Cellular assay Selectivity fold (TYK2/JAK1) [3]: >14 fold | IC50 [4, 6]: > 10000 nM

CNC(=O)c1nnc(NC(=O)C2CC2)cc1Nc1nc2c(F)cc(N3CCC3)cn2n1 [Example N2, 4-((6-(azetidin-1-yl)-8-fluoro-[1,2,4]triazolo [1,5-a]pyridin-2-yl)amino)-6-(cyclopropanecarboxamido)-N-methylpyridazine-3-carboxamide]
IC50 [1]: 0.063 nM | Biochemical assay Selectivity fold (TYK2/JAK1) [1]: 20 fold | IC50 [2]: 1.28 nM | IC50 [3, 5]: 14 nM | Cellular assay Selectivity fold (TYK2/JAK1) [3]: 688 fold | IC50 [4, 6]: 9640 nM

CNC(=O)c1nnc(NC(=O)C2CC2)cc1Nc1nc2c(C)cc(N3CCC3)cn2n1 [Example N3]
IC50 [1]: 0.089 nM | Biochemical assay Selectivity fold (TYK2/JAK1) [1]: 17 fold | IC50 [2]: 1.47 nM | IC50 [3, 5]: 21 nM | Cellular assay Selectivity fold (TYK2/JAK1) [3]: 192 fold | IC50 [4, 6]: 4100 nM

CNC(=O)c1nnc(NC(=O)C2CC2)cc1Nc1nc2ccc(C(=O)N3CCC3)cn2n1 [Example O1, 4-((6-(azetidine-1-carbonyl)-[1,2,4]triazolo[1,5-a]pyridin-2-yl)amino)-6-(cyclopropanecarboxamido)-N-methylpyridazine-3-carboxamide]
IC50 [1]: 0.17 nM | Biochemical assay Selectivity fold (TYK2/JAK1) [1]: 6 fold | IC50 [2]: 1.06 nM | IC50 [3]: 169 nM | Cellular assay Selectivity fold (TYK2/JAK1) [3]: 28 fold | IC50 ([4]; TF-1, 0.5 h): 4880 nM
